# Measured values from ChEMBL document CHEMBL1135009, “2-(Dimethylaminomethyl)-tetrahydroisoxazolopyridobenzazepine derivatives. Synthesis of a new 5-HT(2C) antagonist with potential anxiolytic properties” (Bioorg Med Chem Lett, 2002).
# Experiments:
# Histamine H1 receptor = Histamine H1 receptor (Homo sapiens, UniProt P35367); experiment: Binding affinity against Histamine H1 receptor
# [1] = molecular target: T1, 5-hydroxytryptamine receptor 2A (Homo sapiens, UniProt P28223); experiment: Binding affinity against 5-HT2A receptor
# T1 sequence (P28223 whole entry): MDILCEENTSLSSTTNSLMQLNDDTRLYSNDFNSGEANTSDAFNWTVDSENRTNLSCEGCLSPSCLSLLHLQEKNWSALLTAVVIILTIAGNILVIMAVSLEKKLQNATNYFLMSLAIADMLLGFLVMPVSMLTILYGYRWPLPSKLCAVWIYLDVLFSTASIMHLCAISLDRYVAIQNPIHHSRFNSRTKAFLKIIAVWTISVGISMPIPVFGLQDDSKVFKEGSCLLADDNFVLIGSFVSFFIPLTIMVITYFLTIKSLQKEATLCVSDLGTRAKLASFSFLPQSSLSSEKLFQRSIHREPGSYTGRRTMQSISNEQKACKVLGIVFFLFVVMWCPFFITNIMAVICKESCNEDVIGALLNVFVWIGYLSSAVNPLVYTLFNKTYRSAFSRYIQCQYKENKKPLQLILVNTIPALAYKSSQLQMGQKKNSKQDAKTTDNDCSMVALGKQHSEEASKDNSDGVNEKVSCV
# Mus musculus [2] = experiment: Activity in mCPP challenge test, exploration measurements after sc administration; assay type: functional
# [3] = molecular target: T2, Alpha-1A adrenergic receptor (Homo sapiens, UniProt P35348); experiment: Binding affinity against Alpha-1A adrenergic receptor
# T2 sequence (P35348 whole entry): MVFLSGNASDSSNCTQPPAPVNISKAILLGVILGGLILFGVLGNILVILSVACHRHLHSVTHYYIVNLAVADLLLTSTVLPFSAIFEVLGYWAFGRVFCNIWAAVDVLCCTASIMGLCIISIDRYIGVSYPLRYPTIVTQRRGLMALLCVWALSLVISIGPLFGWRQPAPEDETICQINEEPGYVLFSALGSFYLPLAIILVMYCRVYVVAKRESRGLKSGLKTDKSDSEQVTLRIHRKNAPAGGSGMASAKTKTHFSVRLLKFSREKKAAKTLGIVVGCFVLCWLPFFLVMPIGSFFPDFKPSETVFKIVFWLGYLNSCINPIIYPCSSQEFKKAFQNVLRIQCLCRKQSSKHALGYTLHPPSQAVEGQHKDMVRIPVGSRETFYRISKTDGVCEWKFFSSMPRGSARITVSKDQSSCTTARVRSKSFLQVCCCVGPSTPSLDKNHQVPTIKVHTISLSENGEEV
# D(3) dopamine receptor = D(3) dopamine receptor (Homo sapiens, UniProt P35462); experiment: Binding affinity against Dopamine receptor D3
# Chain of D(3) dopamine receptor (P35462 whole entry): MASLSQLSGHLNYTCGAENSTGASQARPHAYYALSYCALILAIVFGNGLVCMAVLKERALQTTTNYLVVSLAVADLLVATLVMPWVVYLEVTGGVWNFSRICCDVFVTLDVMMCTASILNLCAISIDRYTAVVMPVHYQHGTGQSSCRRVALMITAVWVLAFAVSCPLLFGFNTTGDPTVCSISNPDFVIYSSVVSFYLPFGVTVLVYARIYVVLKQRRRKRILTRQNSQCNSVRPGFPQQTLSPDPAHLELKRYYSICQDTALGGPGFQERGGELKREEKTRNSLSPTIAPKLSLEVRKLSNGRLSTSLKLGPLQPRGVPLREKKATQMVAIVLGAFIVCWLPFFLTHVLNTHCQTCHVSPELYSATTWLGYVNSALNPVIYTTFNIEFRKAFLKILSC
# [4] = molecular target: T3, 5-hydroxytryptamine receptor 1A (Homo sapiens, UniProt P08908); experiment: Binding affinity against 5-HT1A receptor
# T3 sequence (P08908 whole entry): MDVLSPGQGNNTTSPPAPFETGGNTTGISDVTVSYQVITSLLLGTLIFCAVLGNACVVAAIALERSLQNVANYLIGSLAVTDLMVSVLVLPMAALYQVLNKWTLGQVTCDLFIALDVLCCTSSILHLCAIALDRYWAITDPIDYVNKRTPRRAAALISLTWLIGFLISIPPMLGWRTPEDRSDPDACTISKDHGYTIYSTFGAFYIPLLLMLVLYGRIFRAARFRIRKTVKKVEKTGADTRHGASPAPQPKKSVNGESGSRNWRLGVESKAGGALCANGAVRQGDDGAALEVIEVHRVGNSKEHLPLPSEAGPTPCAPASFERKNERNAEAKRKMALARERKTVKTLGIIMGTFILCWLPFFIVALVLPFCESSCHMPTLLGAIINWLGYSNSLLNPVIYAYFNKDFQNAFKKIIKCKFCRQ
# D(4) dopamine receptor = molecular target: T4, D(4) dopamine receptor (Homo sapiens, UniProt P21917); experiment: Binding affinity against Dopamine receptor D4
# T4 sequence (P21917 whole entry): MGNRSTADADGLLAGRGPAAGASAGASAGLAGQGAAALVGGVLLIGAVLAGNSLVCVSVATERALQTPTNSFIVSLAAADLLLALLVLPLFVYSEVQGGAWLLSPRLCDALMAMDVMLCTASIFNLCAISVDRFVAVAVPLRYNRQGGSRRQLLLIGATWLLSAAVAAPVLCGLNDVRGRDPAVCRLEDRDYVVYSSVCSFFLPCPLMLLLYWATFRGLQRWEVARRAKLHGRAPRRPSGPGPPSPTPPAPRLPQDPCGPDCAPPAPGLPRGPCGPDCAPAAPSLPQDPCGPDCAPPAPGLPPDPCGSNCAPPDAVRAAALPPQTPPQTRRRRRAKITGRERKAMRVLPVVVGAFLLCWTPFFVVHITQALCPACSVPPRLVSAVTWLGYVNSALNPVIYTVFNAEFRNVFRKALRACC
# [5] = molecular target: T5, 5-hydroxytryptamine receptor 1D (Homo sapiens, UniProt P28221); experiment: Binding affinity against 5-hydroxytryptamine 1D receptor
# Target sequence in this assay (P28221 whole entry, looked up): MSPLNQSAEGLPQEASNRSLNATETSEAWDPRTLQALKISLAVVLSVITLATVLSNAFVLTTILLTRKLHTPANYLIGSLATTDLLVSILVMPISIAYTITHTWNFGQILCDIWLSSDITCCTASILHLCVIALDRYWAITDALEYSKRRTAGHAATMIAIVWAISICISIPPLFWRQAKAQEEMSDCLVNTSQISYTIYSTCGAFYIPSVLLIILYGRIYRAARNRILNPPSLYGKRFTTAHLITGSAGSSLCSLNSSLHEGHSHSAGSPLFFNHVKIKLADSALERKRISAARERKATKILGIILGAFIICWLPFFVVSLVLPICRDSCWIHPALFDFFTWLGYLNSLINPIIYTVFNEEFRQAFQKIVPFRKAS
# [6] = molecular target: T6, Alpha-2A adrenergic receptor (Homo sapiens, UniProt P08913); experiment: Binding affinity against Alpha-2A adrenergic receptor
# T6 sequence (P08913 whole entry): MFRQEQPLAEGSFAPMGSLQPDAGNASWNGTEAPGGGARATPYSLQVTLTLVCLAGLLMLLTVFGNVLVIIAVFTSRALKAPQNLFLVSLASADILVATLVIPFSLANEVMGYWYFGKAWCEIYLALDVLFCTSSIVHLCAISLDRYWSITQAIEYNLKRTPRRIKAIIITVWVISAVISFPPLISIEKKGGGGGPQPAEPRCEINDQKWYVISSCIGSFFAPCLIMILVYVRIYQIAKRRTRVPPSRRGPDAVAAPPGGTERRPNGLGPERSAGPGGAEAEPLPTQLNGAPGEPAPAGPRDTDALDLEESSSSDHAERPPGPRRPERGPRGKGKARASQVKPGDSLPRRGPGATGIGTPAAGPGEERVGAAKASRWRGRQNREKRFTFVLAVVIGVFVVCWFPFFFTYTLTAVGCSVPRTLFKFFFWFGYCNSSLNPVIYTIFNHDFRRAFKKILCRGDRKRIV
# D(2) dopamine receptor = D(2) dopamine receptor (Homo sapiens, UniProt P14416); experiment: Binding affinity against Dopamine receptor D2L
# Chain of D(2) dopamine receptor (P14416 whole entry): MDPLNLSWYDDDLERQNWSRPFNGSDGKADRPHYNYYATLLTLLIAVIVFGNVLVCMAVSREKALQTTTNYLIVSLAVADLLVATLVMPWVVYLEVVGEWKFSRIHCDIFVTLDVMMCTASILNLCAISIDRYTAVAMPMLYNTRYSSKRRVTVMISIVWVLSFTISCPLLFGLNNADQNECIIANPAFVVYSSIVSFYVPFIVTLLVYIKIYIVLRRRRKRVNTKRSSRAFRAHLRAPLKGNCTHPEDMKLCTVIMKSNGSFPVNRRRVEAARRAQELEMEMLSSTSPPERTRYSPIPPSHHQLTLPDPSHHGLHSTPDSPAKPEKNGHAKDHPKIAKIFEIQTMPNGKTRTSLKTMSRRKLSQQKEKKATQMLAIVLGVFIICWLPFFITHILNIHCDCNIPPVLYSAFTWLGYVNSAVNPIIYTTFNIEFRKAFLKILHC
# [7] = molecular target: T5, 5-hydroxytryptamine receptor 1D; experiment: Binding affinity against 5-HT1D receptor
# Target sequence in this assay (P28221 whole entry): as the sequence (P28221 whole entry, looked up) above
# Mus musculus [8] = experiment: Activity in mCPP challenge test, disinhibition measurement after sc administration; assay type: functional
# [9] = molecular target: T7, 5-hydroxytryptamine receptor 2C (Homo sapiens, UniProt P28335); experiment: Binding affinity against 5-HT2C receptor
# T7 sequence (P28335 whole entry): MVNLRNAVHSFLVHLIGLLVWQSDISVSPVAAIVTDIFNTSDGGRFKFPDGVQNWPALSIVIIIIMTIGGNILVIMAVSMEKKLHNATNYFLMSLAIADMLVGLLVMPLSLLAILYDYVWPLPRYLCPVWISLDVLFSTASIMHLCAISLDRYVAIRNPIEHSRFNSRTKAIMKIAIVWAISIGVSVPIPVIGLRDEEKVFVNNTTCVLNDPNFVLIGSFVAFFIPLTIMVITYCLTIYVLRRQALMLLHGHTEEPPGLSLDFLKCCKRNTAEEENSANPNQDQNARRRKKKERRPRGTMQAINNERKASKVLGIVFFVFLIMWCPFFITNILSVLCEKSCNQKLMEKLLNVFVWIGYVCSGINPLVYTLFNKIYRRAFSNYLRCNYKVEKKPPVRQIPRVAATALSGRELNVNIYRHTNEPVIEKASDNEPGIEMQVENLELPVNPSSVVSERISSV
# [10] = molecular target: T1, 5-hydroxytryptamine receptor 2A; experiment: Binding affinity against 5-hydroxytryptamine 2A receptor
# Chain of Histamine H1 receptor (P35367 whole entry): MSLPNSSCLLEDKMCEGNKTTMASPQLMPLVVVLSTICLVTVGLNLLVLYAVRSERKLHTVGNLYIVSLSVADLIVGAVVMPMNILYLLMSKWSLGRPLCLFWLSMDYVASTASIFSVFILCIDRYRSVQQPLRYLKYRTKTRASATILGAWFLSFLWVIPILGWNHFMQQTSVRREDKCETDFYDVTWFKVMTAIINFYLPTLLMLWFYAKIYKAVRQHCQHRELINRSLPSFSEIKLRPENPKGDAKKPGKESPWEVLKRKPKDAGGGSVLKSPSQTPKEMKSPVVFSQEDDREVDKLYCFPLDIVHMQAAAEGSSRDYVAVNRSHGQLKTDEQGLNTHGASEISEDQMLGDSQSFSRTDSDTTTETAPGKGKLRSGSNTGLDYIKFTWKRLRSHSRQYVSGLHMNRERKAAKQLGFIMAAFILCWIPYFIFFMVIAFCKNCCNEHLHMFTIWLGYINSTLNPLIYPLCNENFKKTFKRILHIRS
SMILES,IC50 (Histamine H1 receptor) [nM],IC50 [1] [nM],ED50 (Mus musculus [2]) [mg/kg],IC50 [3] [nM],IC50 (D(3) dopamine receptor) [nM],IC50 [4] [nM],IC50 (D(4) dopamine receptor) [nM],IC50 [5] [nM],IC50 [6] [nM],IC50 (D(2) dopamine receptor) [nM],IC50 [7] [nM],ED50 (Mus musculus [8]) [mg/kg],IC50 [9] [nM],IC50 [10] [nM]
CN(C)CC1CC2c3cccnc3Cc3ccccc3N2O1 (stereo not given),16.6,> 1000,< 2.5,> 1000,> 1000,> 1000,> 1000,912,> 1000,> 1000,> 1000,< 2.5,–,–
CN(C)CC1CC2c3ccccc3Cc3ccc(Cl)cc3N2O1 (stereo not given),2.34,–,> 2.5,14.5,–,–,2.63,–,–,–,–,0.16,1.05,–
CN(C)CC1CC2c3ccccc3Cc3ccncc3N2O1 (stereo not given),> 1000,–,2.5,398,1660,–,251,–,> 1000,1910,–,0.16,12.6,389
CN(C)CC1CC2c3ccccc3Cc3ccccc3N2O1 (stereo not given),–,–,> 2.5,–,–,–,–,–,–,–,–,0.01,–,–
